Target: T1, glucokinase (GK) (Homo sapiens, UniProt P35557)
T1 construct: I.D. No. 1 corresponds to residues 12-465 of glucokinase; made in house; host or cells: E. coli DH10b-T1r
T1 sequence (P35557 with tags, fused parts or gaps isoform P35557-2): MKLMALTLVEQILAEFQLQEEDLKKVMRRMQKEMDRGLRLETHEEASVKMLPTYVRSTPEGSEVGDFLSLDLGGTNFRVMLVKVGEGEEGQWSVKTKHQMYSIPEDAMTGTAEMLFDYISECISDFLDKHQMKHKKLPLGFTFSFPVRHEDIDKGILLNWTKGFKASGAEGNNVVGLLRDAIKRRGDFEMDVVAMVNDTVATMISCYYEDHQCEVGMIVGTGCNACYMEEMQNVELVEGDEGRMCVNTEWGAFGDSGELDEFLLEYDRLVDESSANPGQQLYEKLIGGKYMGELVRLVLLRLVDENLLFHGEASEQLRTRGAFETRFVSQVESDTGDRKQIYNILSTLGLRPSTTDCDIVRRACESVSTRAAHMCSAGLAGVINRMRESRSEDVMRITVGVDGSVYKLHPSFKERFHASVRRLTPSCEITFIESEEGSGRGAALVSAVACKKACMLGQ
Assay: enzymatic glucokinase activity assay (ATP consumption, KinaseGlo luminescence)
Assay type: biochemical
Conditions: recombinant GK residues 12-465; 5 μM ATP, 5 mM Glucose; Kact = concentration that displays 50% of the maximal increase in GK activity; read-out: pKact
Outline: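 Recombinant human glucokinase expressed in E. coli was run in 25 mM Hepes pH 7.2 with 10 mM MgCl2, 1 mM DTT, 5 μM ATP, 5 mM glucose and 2% DMSO for 60 min at room temperature. Remaining ATP was read by KinaseGlo luminescence; pKact came from non-linear curve fits.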

| Structure (SMILES) | EC50 |
| --- | --- |
| COc1ccc2nc(NC(=O)[C@@H](CC3CCCCC3)n3ccc(S(=O)(=O)C4CC4)cc3=O)sc2n1 [Example 75, (R)-3-cyclohexyl-2-(4-(cyclopropylsulfonyl)-2-oxopyridin-1(2H)-yl)-N-(5-methoxythiazolo[5,4-b]pyridin-2-yl)propanamide] | 1.58 to 15.8 µM |
| COc1ccc2nc(NC(=O)[C@H](CC3CCCCC3)n3ccc(S(=O)(=O)C4CC4)cc3=O)sc2n1 [Example 76, (S)-3-cyclohexyl-2-(4-(cyclopropylsulfonyl)-2-oxopyridin-1(2H)-yl)-N-(5-methoxythiazolo[5,4-b]pyridin-2-yl)propanamide] | < 1.58 µM |
| Cc1cc(S(=O)(=O)C2CC2)c(Cl)c(=O)n1[C@@H](CC1CCCCC1)C(=O)Nc1ncc(Cl)s1 [Example 77, (S)-2-(3-chloro-4-(cyclopropylsulfonyl)-6-methyl-2-oxopyridin-1(2H)-yl)-N-(5-chlorothiazol-2-yl)-3-cyclohexylpropanamide] | < 1.58 µM |
| Cc1cc(S(=O)(=O)C2CC2)c(Cl)c(=O)n1[C@H](CC1CCCCC1)C(=O)Nc1ncc(Cl)s1 [Example 78, (R)-2-(3-chloro-4-(cyclopropylsulfonyl)-6-methyl-2-oxopyridin-1(2H)-yl)-N-(5-chlorothiazol-2-yl)-3-cyclohexylpropanamide] | 1.58 to 15.8 µM |
| Cc1cc(S(=O)(=O)Cc2cccs2)cc(=O)n1C(CC1CCCCC1)C(=O)Nc1ncc(Cl)s1 (stereo not drawn) [Example 80, N-(5-chlorothiazol-2-yl)-3-cyclohexyl-2-(6-methyl-2-oxo-4-(thiophen-2-ylmethylsulfonyl)pyridin-1(2H)-yl)propanamide] | 1.58 to 15.8 µM |
| Cc1cc(S(=O)(=O)Cc2ccco2)cc(=O)n1C(CC1CCCCC1)C(=O)Nc1nccs1 (stereo not drawn) [Example 81, 3-cyclohexyl-2-(4-(furan-2-ylmethylsulfonyl)-6-methyl-2-oxopyridin-1(2H)-yl)-N-(thiazol-2-yl)propanamide] | < 1.58 µM |
| Cc1cc(S(=O)(=O)C2CCCC2)cc(=O)n1C(CC1CCCCC1)C(=O)Nc1ncc(Cc2ccc(F)cc2)s1 (stereo not drawn) [Example 82, 3-cyclohexyl-2-(4-(cyclopentylsulfonyl)-6-methyl-2-oxopyridin-1(2H)-yl)-N-(5-(4-fluorobenzyl)thiazol-2-yl)propanamide] | < 1.58 µM |
| Cc1cc(S(=O)(=O)c2cc(C)n(C(CC3CCCCC3)C(=O)Nc3ncc(Cl)s3)c(=O)c2)c(C)o1 (stereo not drawn) [Example 83, N-(5-chlorothiazol-2-yl)-3-cyclohexyl-2-(4-(2,5-dimethylfuran-3-ylsulfonyl)-6-methyl-2-oxopyridin-1(2H)-yl)propanamide] | < 1.58 µM |
| O=C(Nc1nc2ccc(O)cc2s1)C(CC1CCOCC1)n1ccc(S(=O)(=O)C2CC2)cc1=O (stereo not drawn) [Example 84, 2-(4-(cyclopropylsulfonyl)-2-oxopyridin-1(2H)-yl)-N-(6-hydroxybenzo[d]thiazol-2-yl)-3-(tetrahydro-2H-pyran-4-yl)propanamide] | > 15.8 µM |
| Cc1cc(S(=O)(=O)Cc2cccs2)cc(=O)n1[C@@H](CC1CCCCC1)C(=O)Nc1ncc(Cl)s1 [Example 85, (S)-N-(5-chlorothiazol-2-yl)-3-cyclohexyl-2-(6-methyl-2-oxo-4-(thiophen-2-ylmethylsulfonyl)pyridin-1(2H)-yl)propanamide] | < 1.58 µM |
| Cc1cc(N2CCCC2)cc(=O)n1C(CC1CCCCC1)C(=O)Nc1nccs1 (stereo not drawn) [Example 87, 3-cyclohexyl-2-(6-methyl-2-oxo-4-(pyrrolidin-1-yl)pyridin-1(2H)-yl)-N-(thiazol-2-yl)propanamide] | > 15.8 µM |
| COCCC(C)(C)S(=O)(=O)c1ccn(C(CC2CCOCC2)C(=O)Nc2nc3ccc(OC)nc3s2)c(=O)c1 (stereo not drawn) [Example 88, 2-(4-(4-methoxy-2-methylbutan-2-ylsulfonyl)-2-oxopyridin-1(2H)-yl)-N-(5-methoxythiazolo[5,4-b]pyridin-2-yl)-3-(tetrahydro-2H-pyran-4-yl)propanamide] | 1.58 to 15.8 µM |
| Cc1cc(S(=O)(=O)C2CCCC2)cc(=O)n1C(CC1CCCCC1)C(=O)Nc1ncc(CN2CCOCC2)s1 (stereo not drawn) [Example 89, 3-cyclohexyl-2-(4-(cyclopentylsulfonyl)-6-methyl-2-oxopyridin-1(2H)-yl)-N-(5-(morpholinomethyl)thiazol-2-yl)propanamide] | < 1.58 µM |
| Cc1cc(-c2ccccc2)cc(=O)n1[C@@H](CC1CCCCC1)C(=O)Nc1nccs1 [Example 90, (S)-3-cyclohexyl-2-(6-methyl-2-oxo-4-phenylpyridin-1(2H)-yl)-N-(thiazol-2-yl)propanamide] | > 15.8 µM |
| Cc1cc(-c2ccccc2Cl)cc(=O)n1[C@@H](CC1CCCCC1)C(=O)Nc1nccs1 [Example 91, (S)-2-(4-(2-chlorophenyl)-6-methyl-2-oxopyridin-1(2H)-yl)-3-cyclohexyl-N-(thiazol-2-yl)propanamide] | > 15.8 µM |
| Cc1cc(-c2cccc(Cl)c2)cc(=O)n1[C@@H](CC1CCCCC1)C(=O)Nc1nccs1 [Example 92, (S)-2-(4-(3-chlorophenyl)-6-methyl-2-oxopyridin-1(2H)-yl)-3-cyclohexyl-N-(thiazol-2-yl)propanamide] | > 15.8 µM |
| Cc1cc(-c2ccc(Cl)cc2)cc(=O)n1[C@@H](CC1CCCCC1)C(=O)Nc1nccs1 [Example 93, (S)-2-(4-(4-chlorophenyl)-6-methyl-2-oxopyridin-1(2H)-yl)-3-cyclohexyl-N-(thiazol-2-yl)propanamide] | > 15.8 µM |
| COc1cccc(-c2cc(C)n([C@@H](CC3CCCCC3)C(=O)Nc3nccs3)c(=O)c2)c1 [Example 95, (S)-3-cyclohexyl-2-(4-(3-methoxyphenyl)-6-methyl-2-oxopyridin-1(2H)-yl)-N-(thiazol-2-yl)propanamide] | 1.58 to 15.8 µM |
| COc1ccc(-c2cc(C)n([C@@H](CC3CCCCC3)C(=O)Nc3nccs3)c(=O)c2)cc1 [Example 96, (S)-3-cyclohexyl-2-(4-(4-methoxyphenyl)-6-methyl-2-oxopyridin-1(2H)-yl)-N-(thiazol-2-yl)propanamide] | > 15.8 µM |
| Cc1cc(-c2cccc(C#N)c2)cc(=O)n1[C@@H](CC1CCCCC1)C(=O)Nc1nccs1 [Example 97, (S)-2-(4-(3-cyanophenyl)-6-methyl-2-oxopyridin-1(2H)-yl)-3-cyclohexyl-N-(thiazol-2-yl)propanamide] | > 15.8 µM |
| Cc1cc(-c2ccc(C#N)cc2)cc(=O)n1[C@@H](CC1CCCCC1)C(=O)Nc1nccs1 [Example 98, (S)-2-(4-(4-cyanophenyl)-6-methyl-2-oxopyridin-1(2H)-yl)-3-cyclohexyl-N-(thiazol-2-yl)propanamide] | 1.58 to 15.8 µM |
| Cc1cc(-c2ccoc2)cc(=O)n1[C@@H](CC1CCCCC1)C(=O)Nc1nccs1 [Example 99, (S)-3-cyclohexyl-2-(4-(furan-3-yl)-6-methyl-2-oxopyridin-1(2H)-yl)-N-(thiazol-2-yl)propanamide] | > 15.8 µM |
| Cc1cc(-c2cccnc2)cc(=O)n1[C@@H](CC1CCCCC1)C(=O)Nc1nccs1 [Example 100, (S)-3-cyclohexyl-2-(6-methyl-2-oxo-4-(pyridin-3-yl)pyridin-1(2H)-yl)-N-(thiazol-2-yl)propanamide] | 1.58 to 15.8 µM |
| Cc1cc(-c2ccc(S(C)(=O)=O)cc2)cc(=O)n1[C@@H](CC1CCCCC1)C(=O)Nc1nccs1 [Example 101, (S)-3-cyclohexyl-2-(6-methyl-4-(4-(methylsulfonyl)phenyl)-2-oxopyridin-1(2H)-yl)-N-(thiazol-2-yl)propanamide] | > 15.8 µM |
| CCS(=O)(=O)c1ccc(-c2cc(C)n([C@@H](CC3CCCCC3)C(=O)Nc3nccs3)c(=O)c2)cc1 [Example 102, (S)-3-cyclohexyl-2-(4-(4-(ethylsulfonyl)phenyl)-6-methyl-2-oxopyridin-1(2H)-yl)-N-(thiazol-2-yl)propanamide] | > 15.8 µM |
| COc1ccc(Cl)cc1-c1cc(C)n([C@@H](CC2CCCCC2)C(=O)Nc2nccs2)c(=O)c1 [Example 103, (S)-2-(4-(5-chloro-2-methoxyphenyl)-6-methyl-2-oxopyridin-1(2H)-yl)-3-cyclohexyl-N-(thiazol-2-yl)propanamide] | > 15.8 µM |
| Cc1cc(-c2cc3ccccc3o2)cc(=O)n1[C@@H](CC1CCCCC1)C(=O)Nc1nccs1 [Example 104, (S)-2-(4-(benzofuran-2-yl)-6-methyl-2-oxopyridin-1(2H)-yl)-3-cyclohexyl-N-(thiazol-2-yl)propanamide] | > 15.8 µM |
| Cc1cc(-c2ccc(F)cc2)cc(=O)n1[C@@H](CC1CCCCC1)C(=O)Nc1nccs1 [Example 105, (S)-3-cyclohexyl-2-(4-(4-fluorophenyl)-6-methyl-2-oxopyridin-1(2H)-yl)-N-(thiazol-2-yl)propanamide] | > 15.8 µM |
| Cc1cc(-c2ccc(F)c(Cl)c2)cc(=O)n1[C@@H](CC1CCCCC1)C(=O)Nc1nccs1 [Example 106, (S)-2-(4-(3-chloro-4-fluorophenyl)-6-methyl-2-oxopyridin-1(2H)-yl)-3-cyclohexyl-N-(thiazol-2-yl)propanamide] | > 15.8 µM |
| Cc1cc(-c2csc3ccccc23)cc(=O)n1[C@@H](CC1CCCCC1)C(=O)Nc1nccs1 [Example 107, (S)-2-(4-(benzo[b]thiophen-3-yl)-6-methyl-2-oxopyridin-1(2H)-yl)-3-cyclohexyl-N-(thiazol-2-yl)propanamide] | > 15.8 µM |

From patent US8163779B2, “Glucokinase activators” (Takeda San Diego, Inc., priority 2006, dated 2012)
